Where two headings read alike, the source gives them in different places.
Legend:
ATX in human whole blood = ATX in human whole blood (Homo sapiens (Human), UniProt Q13822); assay: Assay B: Whole-Blood ATX Assay; format: biochemical
Experimental: 45 μL human whole-blood was supplemented with 5 μL of the test compound, dissolved in phosphate-buffered saline (concentration range 0.12 nM-100 μM). This mixture was incubated for 1 h at 37° C. and stopped by addition of 100 μL 40 mM disodium hydrogen phosphate buffer containing 30 mM citric acid (pH 4) and 1 μM 17:0 LPA (internal standard). LPA was extracted by addition of 500 μL 1-butanol, followed by 10-min centrifugation at 4000 rpm, 4° C. From the resultant organic supernatant, a 200 μL aliquot was transferred into a 96-deep-well plate and transferred to the RapidFire-based MS/MS measurement.
The MS was operated in negative mode with a source temperature of 550° C., curtain gas=35, gas 1=65, and gas 2=80. The following transitions and MS parameters (DP: declustering potential and CE: collision energy) for the respective LPAs were determined: 18:2 LPA at 433.2/152.8, DP=−150, CE=−27 and 17:0 LPA at 423.5/152.8, DP=−100.
The formation of 18:2 LPA was monitored and evaluated as ratio to 17:0 LPA.

LPA levels = details: as disclosed in C. Kuttruff, et al.; cited from earlier work
[1] = human whole-blood, 1 h at 37° C., formation of 18:2 LPA, read-out: Human whole blood LPA IC50

Compound: FC(F)(F)c1ccc(COc2ccc(NCc3ccc(N4CCN(C5COC5)CC4)cc3)nn2)cn1 [Example 2.8]
- IC50 (ATX in human whole blood; [1]): 2.4 nM

Compound: CC(=O)N1CCN(c2ccc(CNc3ccc(OCc4ccc(C(F)(F)F)nc4)nn3)cc2)CC1 [Example 2.2]
- IC50 (ATX in human whole blood; [1]): 4.7 nM

Compound: CC(=O)N1CCN(c2ccc(CNc3ccc(OCc4ccc(C(F)(F)F)nc4)nn3)nc2)CC1 [Example 2.15]
- IC50 (ATX in human whole blood; [1]): 9.3 nM

Compound: CC(=O)N1CCC2(CC1)CN(c1ccc(CNc3ccc(OCc4ccc(C(F)F)nc4)nn3)cc1)C2 [Example 1.6]
- IC50 (ATX in human whole blood; [1]): 8.7 nM

Compound: CC(=O)N1CCN(c2ccc(CNc3ccc(OCc4ccc(C(F)F)nc4)nn3)c(C(F)(F)F)c2)CC1 [Example 2.7]
- IC50 (ATX in human whole blood; [1]): 7 nM

Compound: CC(=O)N1CC2(C1)CN(c1ccc(CNc3ccc(OCc4ccc(C(F)(F)F)nc4)nn3)c(F)c1)C2 [Example 2.21]
- IC50 (ATX in human whole blood; [1]): 1.4 nM

Compound: CC(=O)N1C[C@@H]2[C@H](C1)[C@H]1CN(c3ccc(CNc4ccc(OCc5ccc(C(F)(F)F)nc5)nn4)cc3)C[C@@H]21 [Example 5, 1-((3aR,3bS,6aR,6bS)-5-(4-(((6-((6-(trifluoromethyl)pyridin-3-yl)methoxy)pyridazin-3-yl)amino)methyl)phenyl)octahydrocyclobuta[1,2-c:3,4-c′]dipyrrol-2(1H)-yl)ethan-1-one]
- IC50 (ATX in human whole blood; [1]): 7.5 nM

Compound: CC(=O)N1CC[C@@H]2CN(c3ccc(CNc4ccc(OCc5ccc(C(F)(F)F)nc5)nn4)cc3)C[C@@H]2CC1 [Example 4]
- IC50 (ATX in human whole blood; [1]): 7.1 nM

Compound: FC(F)c1ccc(COc2ccc(NCc3ccc(N4CCN(C5COC5)CC4)cc3)nn2)cn1 [Example 2.10]
- IC50 (ATX in human whole blood; [1]): 2.2 nM

Compound: CC(=O)N1CC2CC1CN2c1ccc(CNc2ccc(OCc3ccc(C(F)(F)F)nc3)nn2)cc1 (stereo not drawn) [Example 2.23]
- IC50 (ATX in human whole blood; [1]): 3.6 nM

Compound: CC(=O)N1CC2CCC(C1)N2c1ccc(CNc2ccc(OCc3ccc(C(F)(F)F)nc3)nn2)cc1 [Example 2.19]
- IC50 (ATX in human whole blood): 2 nM

Compound: CC(=O)N1CCC2(CC1)CN(c1ccc(CNc3ccc(OCc4ccc(C(F)(F)F)nc4)nn3)cn1)C2 [Example 2.17]
- IC50 (ATX in human whole blood; [1]): 3.5 nM

Compound: CC(=O)N1C[C@@H]2CN(c3ccc(CNc4ccc(OCc5ccc(C(F)F)nc5)nn4)cc3)C[C@@H]2C1 [Example 2.14]
- IC50 (ATX in human whole blood; [1]): 2.8 nM

Compound: CC(=O)N[C@H]1[C@@H]2CN(c3ccc(CNc4ccc(OCc5ccc(C(F)(F)F)nc5)nn4)cc3)C[C@@H]21 [Example 2.11]
- IC50 (ATX in human whole blood; [1]): 4 nM

Compound: CC(=O)N1CC2CCC1CN2c1ccc(CNc2ccc(OCc3ccc(C(F)(F)F)nc3)nn2)cc1 (stereo not drawn) [Example 2.20]
- IC50 (ATX in human whole blood; [1]): 3.7 nM

Compound: CC(=O)N1CC2(C1)CN(c1ccc(CNc3ccc(OCc4ccc(C(F)(F)F)nc4)nn3)cc1)C2 [Example 1.1, 1-(6-(4-(((6-((6-(trifluoromethyl)pyridin-3-yl)methoxy)pyridazin-3-yl)amino)methyl)phenyl)-2,6-diazaspiro[3.3]heptan-2-yl)ethan-1-one]
- IC50 (ATX in human whole blood; [1]): 1.7 nM

Compound: CC(=O)N(C)C1CCN(c2ccc(CNc3ccc(OCc4ccc(C(F)(F)F)nc4)nn3)cc2)CC1 [Example 2.1, N-methyl-N-[1-(4-{[(6-{[6-(trifluoromethyl)pyridin-3-yl]methoxy}pyridazin-3-yl)amino]methyl}phenyl)piperidin-4-yl]acetamide]
- IC50 (ATX in human whole blood; [1]): 4.7 nM

Compound: CN1CC2(CC1=O)CN(c1ccc(CNc3ccc(OCc4ccc(C(F)F)nc4)nn3)cc1)C2 [Example 1.5]
- IC50 (ATX in human whole blood; [1]): 2 nM

Compound: CC(=O)N1CCN(c2ccc(CNc3ccc(OCc4cnc(C(F)F)c(F)c4)nn3)cc2)CC1 [Example 2.12]
- IC50 (ATX in human whole blood; [1]): 4.3 nM

Compound: O=C(NC[C@@H]1[C@H]2CN(C(=O)OCc3cc(C(F)(F)F)cc(C(F)(F)F)c3)C[C@@H]12)c1ccc2[nH]nnc2c1
- LPA levels in vivo (LPA levels): significantly reduces

Compound: CC(=O)N1CCC2(CC1)CN(c1ccc(CNc3ccc(OCc4ccc(C(F)(F)F)nc4)nn3)cc1)C2 [Example 2.22]
- IC50 (ATX in human whole blood; [1]): 3.9 nM

Compound: CC(=O)N1CCN(c2ccc(CNc3ccc(OCc4ccc(C(F)F)nc4)nn3)nc2)CC1 [Example 2.4]
- IC50 (ATX in human whole blood; [1]): 6.8 nM

Compound: CC(=O)N1CCC2(CC1)CN(c1ccc(CNc3ccc(OCc4ccc(C(F)F)nc4)nn3)cn1)C2 [Example 2.18]
- IC50 (ATX in human whole blood; [1]): 4.1 nM

Compound: CC(=O)N1CCC2(CC1)CN(c1ccc(CNc3ccc(OCc4ccc(C(F)F)nc4)nn3)nc1)C2 [Example 2.16]
- IC50 (ATX in human whole blood; [1]): 5.1 nM

Compound: CC(=O)N1CC2(C1)CN(c1ccc(CNc3ccc(OCc4ccc(C(F)(F)F)nc4)nn3)cc1F)C2 [Example 2.9]
- IC50 (ATX in human whole blood; [1]): 4.1 nM

Compound: CC(=O)N1CC2CC1CN2c1ccc(CNc2ccc(OCc3ccc(C(F)F)nc3)nn2)cc1 (stereo not drawn) [Example 2.6]
- IC50 (ATX in human whole blood; [1]): 3.2 nM

Compound: CC(=O)N1CCN(c2ccc(CNc3ccc(OCc4ccc(C(F)F)nc4)nn3)c(F)c2)CC1 [Example 1.4]
- IC50 (ATX in human whole blood; [1]): 2.8 nM

Compound: CC(=O)N1CCN(c2ccc(CNc3ccc(OCc4ccc(C(F)F)nc4)nn3)cn2)CC1 [Example 2.3]
- IC50 (ATX in human whole blood; [1]): 4.4 nM

Compound: CC(=O)N1CCN(c2ccc(CNc3ccc(OCc4ccc(C(F)F)nc4)nn3)cc2F)CC1 [Example 1.3]
- IC50 (ATX in human whole blood; [1]): 1.6 nM

Compound: CC(=O)N1CCN(c2ccc(CNc3ccc(OCc4ccc(C(F)(F)F)nc4)nn3)cn2)CC1 [Example 2.5]
- IC50 (ATX in human whole blood; [1]): 4 nM

Compound: CC(=O)N1CCN(c2ccc(CNc3ccc(OCc4ccc(C(F)F)nc4)nn3)cc2)CC1(C)C [Example 1.7]
- IC50 (ATX in human whole blood; [1]): 12.4 nM

Compound: CC(=O)N1CC2(C1)CN(c1ccc(CNc3ccc(OCc4ccc(C(F)F)nc4)nn3)cc1)C2 [Example 1.2]
- IC50 (ATX in human whole blood; [1]): 1 nM

Compound: CC(=O)N1CCN(c2ccc(CNc3ccc(OCc4ccc(C(F)F)nc4)nn3)cc2)CC1 [Example 3, 1-[4-(4-{[(6-{[6-(Difluoromethyl)pyridin-3-yl]methoxy}pyridazin-3-yl)amino]methyl}-phenyl)piperazin-1-yl]ethan-1-one]
- IC50 (ATX in human whole blood; [1]): 1.9 nM
